Measured values as given in ChEMBL document CHEMBL1949670, “Probes for narcotic receptor mediated phenomena. 44. Synthesis of an N-substituted 4-hydroxy-5-(3-hydroxyphenyl)morphan with high affinity and selective μ-antagonist activity” (Eur J Med Chem, 2012).

Key:
[1] = target: Mu-type opioid receptor (Homo sapiens) (UniProt P35372); settings: CHO
Description: Antagonist activity at human mu receptor expressed in CHO cells membrane assessed as inhibition of DAMGO-induced [35S]GTPgammaS binding after 3 hrs by liquid scintillation counting

Mus musculus = assay: Antinociceptive activity in sc dosed mouse; type: functional

Chain of Mu-type opioid receptor (Homo sapiens) (P35372 whole entry): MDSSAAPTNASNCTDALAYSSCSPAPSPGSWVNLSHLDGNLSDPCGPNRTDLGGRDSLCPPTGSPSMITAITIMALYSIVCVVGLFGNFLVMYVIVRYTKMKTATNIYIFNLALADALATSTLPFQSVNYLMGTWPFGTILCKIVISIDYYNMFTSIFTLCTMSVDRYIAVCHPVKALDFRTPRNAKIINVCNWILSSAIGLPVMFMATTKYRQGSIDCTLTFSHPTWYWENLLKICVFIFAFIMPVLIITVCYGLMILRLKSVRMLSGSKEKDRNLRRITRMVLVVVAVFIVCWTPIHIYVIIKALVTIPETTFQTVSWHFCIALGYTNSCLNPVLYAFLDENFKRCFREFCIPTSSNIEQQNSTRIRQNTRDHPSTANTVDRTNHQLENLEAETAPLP

Structure (SMILES)	ED50 [1] [nM]	Ke [1] [nM]	ED50 (Mus musculus) [mg/kg]
CN1CC2(OCCO2)[C@]2(c3cccc(O)c3)CCC[C@H]1C2 (racemic)	89	154	
Oc1cccc([C@@]23CCC[C@@H](C2)N(CCc2ccccc2)C[C@H]3O)c1 (racemic)		12	
CN1CC[C@]23c4c5ccc(O)c4O[C@H]2[C@@H](O)C=C[C@@]3(O)[C@H]1C5			2.9
CN1CC[C@]23c4c5ccc(O)c4O[C@H]2[C@@H](O)CC[C@@]3(O)[C@H]1C5 [HYDROMORPHINOL]			1.1
CN1CC[C@]23c4c5ccc(O)c4O[C@H]2[C@@H](O)CC[C@H]3[C@H]1C5 [DIHYDROMORPHINE]			1.8
